Data on three molecules can be found in paper PMC3234597, “Two Panels of Steroid Receptor Luciferase Reporter Cell Lines for Compound Profiling” (Combinatorial Chemistry & High Throughput Screening, 2011).

What all share (type): cell-based
One assay addresses T1, human ERα (full-length) (Homo sapiens, UniProt P03372, G400V).
T1 sequence (P03372 1-595 G400V): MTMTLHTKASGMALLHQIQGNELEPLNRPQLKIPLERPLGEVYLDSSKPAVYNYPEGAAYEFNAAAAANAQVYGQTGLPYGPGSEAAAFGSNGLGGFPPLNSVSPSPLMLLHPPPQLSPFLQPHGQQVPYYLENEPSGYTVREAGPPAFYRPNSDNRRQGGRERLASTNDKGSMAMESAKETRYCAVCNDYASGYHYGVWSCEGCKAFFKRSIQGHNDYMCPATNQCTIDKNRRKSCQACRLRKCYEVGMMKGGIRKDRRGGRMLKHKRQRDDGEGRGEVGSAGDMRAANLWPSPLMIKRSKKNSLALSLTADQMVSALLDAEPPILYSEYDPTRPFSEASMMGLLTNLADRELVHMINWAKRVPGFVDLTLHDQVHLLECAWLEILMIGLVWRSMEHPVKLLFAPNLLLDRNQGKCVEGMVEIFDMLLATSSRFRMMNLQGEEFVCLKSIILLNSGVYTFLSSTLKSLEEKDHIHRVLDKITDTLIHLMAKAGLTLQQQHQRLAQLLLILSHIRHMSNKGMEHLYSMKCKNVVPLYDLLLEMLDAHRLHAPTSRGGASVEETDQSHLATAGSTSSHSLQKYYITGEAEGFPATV
The experiment in a line: U2OS-ERα/3xERE luciferase reporter cell line (full-length receptor). Background: Reporter assays use an easily measured gene product as a stand-in for the process of interest.

Assay [1] has as its target T2, ERα^wt-LBD fused to Gal4-DBD (Homo sapiens, UniProt P03372).
T2 construct: ERα-LBD (amino acids 303-595) based on GenBank NM_000125; expressed in transfected cells; host or cells: U2OS
T2 sequence (P03372 303-595): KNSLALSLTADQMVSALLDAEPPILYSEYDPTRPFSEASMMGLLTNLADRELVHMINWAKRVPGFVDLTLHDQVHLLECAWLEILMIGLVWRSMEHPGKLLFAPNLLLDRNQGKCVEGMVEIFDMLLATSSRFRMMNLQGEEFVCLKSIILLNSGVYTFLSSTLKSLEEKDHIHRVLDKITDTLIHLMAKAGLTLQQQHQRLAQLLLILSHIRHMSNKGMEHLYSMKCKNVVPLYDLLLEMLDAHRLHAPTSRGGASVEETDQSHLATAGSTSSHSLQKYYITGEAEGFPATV
Description: U2OS-ERα^wt-LBD/9xGal4UAS luciferase reporter cell line.

In assay [2] the target is T3, ERα^G420C-LBD fused to Gal4-DBD (Homo sapiens, UniProt P03372, G420C).
T3 construct: expressed in transfected cells; host or cells: U2OS
T3 sequence (P03372 311-547 G420C limits assumed): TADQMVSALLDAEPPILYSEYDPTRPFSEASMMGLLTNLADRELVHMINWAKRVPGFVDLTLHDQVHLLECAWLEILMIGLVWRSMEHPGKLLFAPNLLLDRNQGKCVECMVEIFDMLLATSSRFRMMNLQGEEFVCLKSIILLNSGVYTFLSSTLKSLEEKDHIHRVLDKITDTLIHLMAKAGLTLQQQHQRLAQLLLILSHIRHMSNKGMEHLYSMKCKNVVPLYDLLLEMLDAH
The experiment in a line: U2OS-ERα^G420C-LBD/9xGal4UAS luciferase reporter cell line.

The target in a further assay is T4, human ERβ (full-length) (Homo sapiens, UniProt Q92731).
T4 construct: expression vectors encoding full-length steroid receptors: pcDNA3-hERα and pcDNA3-ERβ; expressed in transfected cells; host or cells: U2OS
T4 sequence (Q92731 whole entry): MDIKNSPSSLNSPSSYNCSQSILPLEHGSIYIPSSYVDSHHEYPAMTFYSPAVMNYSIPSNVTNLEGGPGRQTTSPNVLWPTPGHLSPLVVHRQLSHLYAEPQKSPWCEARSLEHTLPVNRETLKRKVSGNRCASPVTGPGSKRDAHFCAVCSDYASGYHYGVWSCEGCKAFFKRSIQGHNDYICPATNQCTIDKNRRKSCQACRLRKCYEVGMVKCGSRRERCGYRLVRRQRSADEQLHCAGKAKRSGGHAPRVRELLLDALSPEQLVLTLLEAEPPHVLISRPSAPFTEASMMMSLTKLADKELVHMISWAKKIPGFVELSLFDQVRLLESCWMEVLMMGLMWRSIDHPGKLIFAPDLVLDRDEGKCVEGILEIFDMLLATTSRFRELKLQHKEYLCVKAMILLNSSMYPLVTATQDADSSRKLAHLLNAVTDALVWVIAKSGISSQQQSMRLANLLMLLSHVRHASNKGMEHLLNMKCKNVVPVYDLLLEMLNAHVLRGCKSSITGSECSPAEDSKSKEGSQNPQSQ
Description: U2OS-ERβ/3xERE luciferase reporter cell line (full-length receptor).

In assay [3] the target is T5, ERβ-LBD fused to Gal4-DBD (Homo sapiens, UniProt Q92731).
T5 construct: region comprising ERβ-LBD and a piece of the hinge region; expressed in transfected cells; host or cells: U2OS
T5 sequence (Q92731 264-498 limits assumed): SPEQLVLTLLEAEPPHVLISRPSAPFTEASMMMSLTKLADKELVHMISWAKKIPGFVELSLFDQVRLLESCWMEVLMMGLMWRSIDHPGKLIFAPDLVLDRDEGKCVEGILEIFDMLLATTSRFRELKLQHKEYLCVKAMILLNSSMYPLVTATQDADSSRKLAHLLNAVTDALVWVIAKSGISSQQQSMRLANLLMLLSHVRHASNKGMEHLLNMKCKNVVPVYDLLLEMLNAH
The experiment in a line: U2OS-ERβ-LBD/9xGal4UAS luciferase reporter cell line.

The next assay addresses T6, human MR (full-length) (Homo sapiens, UniProt P08235).
T6 construct: expression vectors encoding full-length steroid receptors: pcDNA3-hAR, pcDNA3-hGR and pcDNA3-hMR; expressed in transfected cells; host or cells: U2OS
T6 sequence (P08235 1-984): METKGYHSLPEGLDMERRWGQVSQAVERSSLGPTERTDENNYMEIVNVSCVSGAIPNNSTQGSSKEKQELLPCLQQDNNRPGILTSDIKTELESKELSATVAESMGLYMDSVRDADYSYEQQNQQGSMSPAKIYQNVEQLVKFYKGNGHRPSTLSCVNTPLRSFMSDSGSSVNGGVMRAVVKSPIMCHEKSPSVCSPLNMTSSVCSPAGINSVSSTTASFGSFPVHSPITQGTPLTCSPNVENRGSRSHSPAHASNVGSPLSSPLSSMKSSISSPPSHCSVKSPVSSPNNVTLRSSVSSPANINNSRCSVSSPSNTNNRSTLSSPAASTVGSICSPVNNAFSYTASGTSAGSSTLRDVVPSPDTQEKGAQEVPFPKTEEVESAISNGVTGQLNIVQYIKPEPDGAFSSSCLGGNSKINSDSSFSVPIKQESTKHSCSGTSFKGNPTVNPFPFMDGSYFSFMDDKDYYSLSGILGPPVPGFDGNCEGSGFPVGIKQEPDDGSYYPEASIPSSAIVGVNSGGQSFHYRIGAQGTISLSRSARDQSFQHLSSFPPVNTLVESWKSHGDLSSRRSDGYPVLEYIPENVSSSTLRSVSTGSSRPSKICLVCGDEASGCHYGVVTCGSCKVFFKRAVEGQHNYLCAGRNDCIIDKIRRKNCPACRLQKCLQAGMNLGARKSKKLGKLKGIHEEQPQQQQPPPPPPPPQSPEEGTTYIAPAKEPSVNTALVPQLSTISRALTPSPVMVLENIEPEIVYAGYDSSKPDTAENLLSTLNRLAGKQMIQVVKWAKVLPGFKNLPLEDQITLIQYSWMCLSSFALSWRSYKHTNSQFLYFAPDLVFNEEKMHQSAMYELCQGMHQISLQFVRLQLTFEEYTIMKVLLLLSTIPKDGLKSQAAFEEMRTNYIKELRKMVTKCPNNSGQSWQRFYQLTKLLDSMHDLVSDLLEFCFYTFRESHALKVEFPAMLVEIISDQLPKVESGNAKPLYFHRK
The experiment in a line: U2OS-MR/MMTV luciferase reporter cell line (full-length receptor).

The target in a further assay is T7, MR-LBD fused to Gal4-DBD (Homo sapiens, UniProt P08235).
T7 construct: MR-LBD was cloned by RT-PCR from total RNA isolated from HEK293 cells; expressed in transfected cells; host or cells: U2OS
T7 sequence (P08235 726-964 limits assumed): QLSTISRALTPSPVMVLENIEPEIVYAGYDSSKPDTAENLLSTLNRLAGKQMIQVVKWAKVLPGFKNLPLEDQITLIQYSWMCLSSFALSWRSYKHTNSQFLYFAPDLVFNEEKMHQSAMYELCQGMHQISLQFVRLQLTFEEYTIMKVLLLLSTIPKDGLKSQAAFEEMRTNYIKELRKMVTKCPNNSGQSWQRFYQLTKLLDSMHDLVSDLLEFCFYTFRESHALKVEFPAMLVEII
Description: U2OS-MR-LBD/9xGal4UAS luciferase reporter cell line.

The next assay deals with T8, PR-LBD fused to Gal4-DBD (Homo sapiens, UniProt P06401).
T8 construct: PR-LBD region was PCR amplified using the following primer combination; host or cells: U2OS
T8 sequence (P06401 679-913 limits assumed): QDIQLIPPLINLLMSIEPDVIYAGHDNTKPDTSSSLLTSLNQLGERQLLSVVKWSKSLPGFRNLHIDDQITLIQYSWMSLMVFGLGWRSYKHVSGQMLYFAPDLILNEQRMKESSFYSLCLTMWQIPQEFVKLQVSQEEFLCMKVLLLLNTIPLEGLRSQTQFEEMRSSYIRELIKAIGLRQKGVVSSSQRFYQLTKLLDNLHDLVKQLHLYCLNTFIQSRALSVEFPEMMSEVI
The experiment in a line: U2OS-PR-LBD/9xGal4UAS luciferase reporter cell line.

The target in assay [4] is T9, human GR (full-length) (Homo sapiens, UniProt P04150).
T9 construct: expression vectors encoding full-length steroid receptors: pcDNA3-hAR and pcDNA3-hGR; host or cells: U2OS
T9 sequence (P04150 1-777): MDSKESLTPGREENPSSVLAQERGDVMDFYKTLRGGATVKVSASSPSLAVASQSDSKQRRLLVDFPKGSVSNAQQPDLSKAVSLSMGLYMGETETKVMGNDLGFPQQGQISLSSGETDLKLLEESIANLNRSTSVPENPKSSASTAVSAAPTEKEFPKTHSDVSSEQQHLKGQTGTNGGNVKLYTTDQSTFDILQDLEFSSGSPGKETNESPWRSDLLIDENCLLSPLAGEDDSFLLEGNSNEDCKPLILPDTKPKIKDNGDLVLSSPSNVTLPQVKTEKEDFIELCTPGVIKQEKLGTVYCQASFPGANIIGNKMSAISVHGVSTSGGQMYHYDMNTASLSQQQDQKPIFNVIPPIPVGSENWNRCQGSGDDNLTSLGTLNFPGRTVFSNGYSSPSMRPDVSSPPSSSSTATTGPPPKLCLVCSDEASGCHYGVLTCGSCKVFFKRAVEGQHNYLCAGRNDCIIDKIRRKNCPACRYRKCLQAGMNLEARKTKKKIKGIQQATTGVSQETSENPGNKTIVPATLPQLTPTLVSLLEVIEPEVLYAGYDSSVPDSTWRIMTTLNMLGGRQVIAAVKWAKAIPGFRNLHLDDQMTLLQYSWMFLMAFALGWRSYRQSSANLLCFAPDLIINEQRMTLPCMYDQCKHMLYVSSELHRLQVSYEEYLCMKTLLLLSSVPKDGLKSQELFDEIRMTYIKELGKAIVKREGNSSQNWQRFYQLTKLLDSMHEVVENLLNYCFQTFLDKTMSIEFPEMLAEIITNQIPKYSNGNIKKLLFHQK
The experiment in a line: U2OS-GR/3xGRE luciferase reporter cell line (full-length receptor).

The target of assay [5] is T9, human GR (full-length). Description: U2OS-GR/MMTV luciferase reporter cell line (full-length receptor).
The target in a further assay is T10, GR-LBD fused to Gal4-DBD (Homo sapiens, UniProt P04150).
T10 construct: expressed in transfected cells; host or cells: U2OS
T10 sequence (P04150 524-758 limits assumed): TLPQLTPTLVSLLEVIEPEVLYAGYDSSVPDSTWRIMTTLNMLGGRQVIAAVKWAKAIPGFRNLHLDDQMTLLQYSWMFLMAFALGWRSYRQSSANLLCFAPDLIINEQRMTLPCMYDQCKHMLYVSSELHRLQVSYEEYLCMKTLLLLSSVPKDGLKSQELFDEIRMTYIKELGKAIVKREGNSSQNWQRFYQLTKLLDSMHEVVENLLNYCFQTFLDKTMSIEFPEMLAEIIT
Description: U2OS-GR-LBD/9xGal4UAS luciferase reporter cell line.

Molecules are shown by their SMILES. Where two headings read alike, the source gives them in different places. Some results are limits rather than exact numbers.

What is called EC50 is the concentration at which the effect is half-maximal. By IC50 is commonly meant the concentration that gives 50% inhibition. For `CC(C)C(=O)Nc1ccc([N+](=O)[O-])c(C(F)(F)F)c1` [Flutamide, flutamide], the EC50 (on human ERα (full-length); in [1]; in assay [2]; at human ERβ (full-length) (read-out: Log EC50 (converted)); in [3] (read-out: Log EC50 (converted)); on human MR (full-length) (read-out: Log EC50 (converted))) was above 10 µM throughout. Moreover, the EC50 on MR-LBD fused to Gal4-DBD (read-out: Log EC50 (converted)) and on PR-LBD fused to Gal4-DBD (read-out: Log EC50 (converted)) was above 10 µM each time. Further, the IC50 on PR-LBD fused to Gal4-DBD (antagonist mode, PR-LBD/9xGal4UAS, log10 of molar IC50, mean ± SEM, read-out: Log IC50 (converted)) is above 10 µM.
Turning to `CC(=O)S[C@@H]1CC2=CC(=O)CC[C@]2(C)[C@H]2CC[C@@]3(C)[C@@H](CC[C@@]34CCC(=O)O4)[C@H]12` [Spironolactone, spironolactone], the EC50 was above 10 µM at human ERα (full-length) (Log EC50, agonist mode, ERα/3xERE, 20 h, value is log10 of molar EC50, mean ± SEM); above 10 µM in assay [1]; above 10 µM in [2]; above 10 µM on human GR (full-length) [4]; above 10 µM on human GR (full-length) [5]; above 10 µM on GR-LBD fused to Gal4-DBD.
With `C[C@]12CC[C@H]3[C@@H](CCC4=CC(=O)CC[C@@]43C)[C@@H]1CC[C@@H]2O` [Testosterone, testosterone], the EC50 at human ERβ (full-length) was 0.49 µM; in assay [3], 2.88 µM; on human GR (full-length) [4], above 10 µM; at human GR (full-length) [5], above 10 µM; on GR-LBD fused to Gal4-DBD it was above 10 µM; at human MR (full-length), above 10 µM. The EC50 at MR-LBD fused to Gal4-DBD is above 10 µM; at PR-LBD fused to Gal4-DBD, 0.0468 µM. The molecule further gave a 50% inhibitory concentration (IC50) at PR-LBD fused to Gal4-DBD above 10 µM.
